# Legend:
# [1] = target: T1, Cytochrome P450 3A4 (Homo sapiens, UniProt P08684); test: Inhibition of human CYP3A4 by microtiter plate assays using PPR substrate
# [2] = target: T2, 5-hydroxytryptamine receptor 6 (Homo sapiens, UniProt P50406); test: Antagonist activity at 5HT6 receptor expressed in HeLa cells assessed as 5HT-induced cAMP accumulation by chemiluminescence assay; format: functional, cell-based
# [3] = test system: Liver microsomes; test: Metabolic stability in rat liver microsomes assessed as intrinsic clearance at […] upto 30 mins; format: ADME, Microsome; details: 0.5 h
# [4] = target: T1, Cytochrome P450 3A4; test: Inhibition of human CYP3A4 by microtiter plate assays using N-N,diethyl-formamide as substrate
# [5] = Ratio of drug level in brain to blood in orally dosed rat after 4 hrs; details: brain and blood, po
# [6] = test system: Blood; test: Drug level in rat blood at 1 mg/kg, po; format: ADME, organism-based; parameters: dose 1 mg/kg, route oral; details: in vivo, read-out: Drug uptake
# [7] = target: 5-hydroxytryptamine receptor 2A (Homo sapiens, UniProt P28223); test: Antagonist activity at 5HT2A receptor; format: functional
# Sequence of 5-hydroxytryptamine receptor 2A (P28223 whole entry): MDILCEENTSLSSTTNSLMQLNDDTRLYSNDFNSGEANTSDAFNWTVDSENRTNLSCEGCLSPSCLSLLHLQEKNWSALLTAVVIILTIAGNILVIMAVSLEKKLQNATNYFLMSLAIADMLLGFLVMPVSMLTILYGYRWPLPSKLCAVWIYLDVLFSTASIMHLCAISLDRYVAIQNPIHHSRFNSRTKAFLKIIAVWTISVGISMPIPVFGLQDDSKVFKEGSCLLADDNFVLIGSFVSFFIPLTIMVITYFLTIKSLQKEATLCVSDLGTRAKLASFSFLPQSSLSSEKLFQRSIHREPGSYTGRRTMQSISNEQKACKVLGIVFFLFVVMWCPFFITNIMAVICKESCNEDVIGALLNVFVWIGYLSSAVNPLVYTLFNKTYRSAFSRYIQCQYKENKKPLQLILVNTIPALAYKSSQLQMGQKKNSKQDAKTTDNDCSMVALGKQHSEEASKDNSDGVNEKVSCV
# [8] = target: 5-hydroxytryptamine receptor 2B (Homo sapiens, UniProt P41595); test: Antagonist activity at 5HT2B receptor; format: functional
# Sequence of 5-hydroxytryptamine receptor 2B (P41595 whole entry): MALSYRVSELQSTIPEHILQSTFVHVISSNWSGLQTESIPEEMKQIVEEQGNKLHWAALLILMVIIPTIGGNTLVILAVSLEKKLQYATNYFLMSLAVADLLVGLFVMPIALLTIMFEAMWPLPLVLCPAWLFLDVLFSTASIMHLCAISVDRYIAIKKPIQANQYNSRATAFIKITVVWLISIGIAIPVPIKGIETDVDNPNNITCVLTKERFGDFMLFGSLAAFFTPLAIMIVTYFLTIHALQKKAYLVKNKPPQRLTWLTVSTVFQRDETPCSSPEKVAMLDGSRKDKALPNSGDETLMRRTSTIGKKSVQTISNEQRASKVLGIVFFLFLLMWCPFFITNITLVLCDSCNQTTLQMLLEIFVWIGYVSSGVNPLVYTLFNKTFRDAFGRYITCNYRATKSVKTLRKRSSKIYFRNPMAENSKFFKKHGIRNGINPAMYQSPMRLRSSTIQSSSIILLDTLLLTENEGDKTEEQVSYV
# [9] = target: T3, 5-hydroxytryptamine receptor 2C (Homo sapiens, UniProt P28335); test: Antagonist activity at 5HT2C receptor; format: functional
# T3 sequence (P28335 whole entry): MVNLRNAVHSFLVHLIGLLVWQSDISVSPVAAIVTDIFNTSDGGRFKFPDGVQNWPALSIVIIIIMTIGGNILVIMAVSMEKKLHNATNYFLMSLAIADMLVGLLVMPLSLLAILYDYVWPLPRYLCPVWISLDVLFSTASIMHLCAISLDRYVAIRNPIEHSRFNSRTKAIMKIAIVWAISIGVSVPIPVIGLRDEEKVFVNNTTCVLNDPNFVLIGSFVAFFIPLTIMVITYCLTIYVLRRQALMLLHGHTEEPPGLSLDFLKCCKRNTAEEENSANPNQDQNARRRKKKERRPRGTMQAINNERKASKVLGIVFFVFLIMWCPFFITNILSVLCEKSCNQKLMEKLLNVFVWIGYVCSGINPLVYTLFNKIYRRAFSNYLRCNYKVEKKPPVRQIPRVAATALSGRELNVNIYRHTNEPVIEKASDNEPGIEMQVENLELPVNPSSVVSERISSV
# [10] = target: 5-hydroxytryptamine receptor 6 (Rattus norvegicus) (UniProt P31388); test: Ex vivo displacement of [125I]258585 from 5HT6 receptor in po dosed rat striatum; format: organism-based
# Sequence of 5-hydroxytryptamine receptor 6 (Rattus norvegicus) (P31388 whole entry): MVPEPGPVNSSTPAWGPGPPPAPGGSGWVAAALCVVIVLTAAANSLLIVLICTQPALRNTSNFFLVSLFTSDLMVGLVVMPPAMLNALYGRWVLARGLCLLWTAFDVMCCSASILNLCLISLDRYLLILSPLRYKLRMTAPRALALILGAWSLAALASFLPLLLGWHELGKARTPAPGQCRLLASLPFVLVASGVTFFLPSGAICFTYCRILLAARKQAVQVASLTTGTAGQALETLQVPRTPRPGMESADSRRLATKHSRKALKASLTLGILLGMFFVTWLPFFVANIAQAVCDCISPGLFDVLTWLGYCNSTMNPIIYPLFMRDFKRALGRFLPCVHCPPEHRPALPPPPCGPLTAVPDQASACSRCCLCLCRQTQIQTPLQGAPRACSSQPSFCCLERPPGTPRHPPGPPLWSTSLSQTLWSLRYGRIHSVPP
# [11] = target: T2, 5-hydroxytryptamine receptor 6; test: Antagonist activity at 5HT6 receptor; format: functional
# T1 sequence (P08684 whole entry): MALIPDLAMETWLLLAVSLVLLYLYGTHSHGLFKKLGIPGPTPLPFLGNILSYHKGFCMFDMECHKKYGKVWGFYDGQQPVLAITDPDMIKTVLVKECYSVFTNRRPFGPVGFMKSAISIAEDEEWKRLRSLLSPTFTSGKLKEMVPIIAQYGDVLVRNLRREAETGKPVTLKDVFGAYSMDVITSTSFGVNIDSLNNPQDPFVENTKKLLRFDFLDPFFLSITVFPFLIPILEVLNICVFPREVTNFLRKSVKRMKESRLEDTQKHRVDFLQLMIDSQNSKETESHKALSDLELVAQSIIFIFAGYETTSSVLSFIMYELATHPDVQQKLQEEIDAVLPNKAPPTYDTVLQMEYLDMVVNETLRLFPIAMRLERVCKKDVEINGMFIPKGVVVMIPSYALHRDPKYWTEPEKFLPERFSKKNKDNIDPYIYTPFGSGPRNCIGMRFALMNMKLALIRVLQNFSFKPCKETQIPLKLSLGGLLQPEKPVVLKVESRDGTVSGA
# T2 sequence (P50406 whole entry): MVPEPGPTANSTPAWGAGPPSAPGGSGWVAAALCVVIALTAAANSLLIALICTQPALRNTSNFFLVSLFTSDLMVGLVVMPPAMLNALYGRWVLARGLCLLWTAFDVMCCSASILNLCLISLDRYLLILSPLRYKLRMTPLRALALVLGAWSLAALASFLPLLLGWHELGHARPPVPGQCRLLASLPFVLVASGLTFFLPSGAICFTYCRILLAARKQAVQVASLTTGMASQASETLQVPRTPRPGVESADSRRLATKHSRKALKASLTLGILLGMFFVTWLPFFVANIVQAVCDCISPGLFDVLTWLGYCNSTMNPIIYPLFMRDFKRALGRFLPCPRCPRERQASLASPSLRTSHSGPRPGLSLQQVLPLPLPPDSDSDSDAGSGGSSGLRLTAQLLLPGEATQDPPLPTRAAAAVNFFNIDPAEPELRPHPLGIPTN
SMILES,IC50 [1] [nM],Ki [2] [nM],CL [3] [mL/min/g],IC50 [4] [nM],other results
CN1CCc2cc3ccn(S(=O)(=O)c4cccc(Cl)c4)c3cc2CC1,71000,1.26,22,15000,–
O=S(=O)(c1ccsc1)n1ccc2cc3c(cc21)CCNCC3,22000,7.94,21,9700,–
O=S(=O)(c1cccc(Cl)c1)n1ccc2cc3c(cc21)CCNCC3,7000,1.58,2.5,3000,Kp at 4 h [5]: 5; concentration [6]: 38 nM
O=S(=O)(c1ccccc1)N1CCCc2cc3c(cc21)CCNCC3,–,39.8,–,–,–
O=S(=O)(c1ccc(Cl)cc1)n1ccc2cc3c(cc21)CCNCC3,–,7.94,–,–,–
O=S(=O)(c1ccccc1)n1ccc2cc3c(cc21)CCNCC3,20000,1.58,7.1,12000,–
Cn1cc(S(=O)(=O)c2ccccc2)c2cc3c(cc21)CCNCC3,13000,2,4.6,7800,–
O=S(=O)(c1cccc(Cl)c1)n1cc(Cl)c2cc3c(cc21)CCNCC3,–,3.98,< 0.5,–,–
O=S(=O)(c1ccccc1Cl)n1ccc2cc3c(cc21)CCNCC3,3200,7.94,4.5,2500,–
COc1cccc(S(=O)(=O)n2ccc3cc4c(cc32)CCNCC4)c1,27000,2,2.7,17000,–
O=S(=O)(c1ccccc1)n1cc(Cl)c2cc3c(cc21)CCNCC3,19000,2.51,1.7,12000,Ki [7]: 25.1 nM; Ki [8]: 398 nM; Ki [9]: 158 nM; ED50 [10]: 4 mg/kg
O=S(=O)(c1ccccn1)n1ccc2cc3c(cc21)CCNCC3,77000,100,3.6,39000,–
O=S(=O)(Nc1ccc2c(c1)CCNCC2)c1ccccc1,–,–,–,–,Kp at 4 h [5]: 0.5; Ki [11]: 2 nM
